As a reminder, the IC50 is the concentration at which inhibition is half-maximal. The low end stands for inhibition by little substance, the high end for a need for much substance.

Each structure is given as a SMILES string. Some results are limits rather than exact numbers.

The text below walks through data of ChEMBL document CHEMBL1141047, “4-Phenyl-1,2,3,6-tetrahydropyridine, an excellent fragment to improve the potency of PARP-1 inhibitors” (Bioorg Med Chem Lett, 2005).

Poly [ADP-ribose] polymerase 1, sequence (P09874 whole entry): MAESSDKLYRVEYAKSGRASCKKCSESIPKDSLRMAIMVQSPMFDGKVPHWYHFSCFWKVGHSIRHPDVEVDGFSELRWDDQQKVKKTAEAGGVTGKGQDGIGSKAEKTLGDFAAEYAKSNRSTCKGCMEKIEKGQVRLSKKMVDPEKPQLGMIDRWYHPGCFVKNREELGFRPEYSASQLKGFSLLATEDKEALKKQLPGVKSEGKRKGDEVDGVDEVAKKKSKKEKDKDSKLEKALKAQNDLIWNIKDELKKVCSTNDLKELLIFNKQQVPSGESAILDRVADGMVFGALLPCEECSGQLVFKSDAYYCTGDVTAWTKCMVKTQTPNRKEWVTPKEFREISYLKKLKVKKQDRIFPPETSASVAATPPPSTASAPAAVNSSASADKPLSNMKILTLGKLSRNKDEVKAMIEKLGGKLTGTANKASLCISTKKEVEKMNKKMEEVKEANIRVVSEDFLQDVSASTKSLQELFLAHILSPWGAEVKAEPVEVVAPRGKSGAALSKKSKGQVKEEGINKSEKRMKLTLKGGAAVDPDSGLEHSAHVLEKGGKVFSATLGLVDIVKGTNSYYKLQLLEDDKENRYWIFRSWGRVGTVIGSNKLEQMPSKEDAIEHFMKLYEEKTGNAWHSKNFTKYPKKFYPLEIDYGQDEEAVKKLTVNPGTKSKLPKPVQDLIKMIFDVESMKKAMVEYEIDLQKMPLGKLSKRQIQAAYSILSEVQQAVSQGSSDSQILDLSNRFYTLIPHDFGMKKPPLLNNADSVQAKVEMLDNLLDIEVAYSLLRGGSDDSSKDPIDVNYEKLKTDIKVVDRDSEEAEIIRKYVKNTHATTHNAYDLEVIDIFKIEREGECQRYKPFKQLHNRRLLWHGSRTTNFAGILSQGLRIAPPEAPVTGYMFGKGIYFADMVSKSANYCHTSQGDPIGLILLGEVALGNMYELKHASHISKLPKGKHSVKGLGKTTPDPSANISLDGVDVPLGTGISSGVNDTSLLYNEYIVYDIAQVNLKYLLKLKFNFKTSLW

The test has as its target Poly [ADP-ribose] polymerase 1 (Homo sapiens, UniProt P09874).
Description: In vitro inhibitory concentration against Poly(ADP-ribose) polymerase 1
`Oc1nnc(CCCCCN2CCOCC2)c2ccccc12` displayed an IC50 of 119 nM.

Take `O=c1[nH]c2ccc(CCCCN3CC=C(c4ccccc4)CC3)cc2c2ccccc12`: inhibition was half-maximal at 119 nM (IC50).

In the case of `O=c1[nH]c2cc(CN3CCOCC3)ccc2c2ccccc12`, half-maximal inhibition (IC50) was put at 23 nM.

For `O=C1N=C(CCCN2CC=C(c3ccccc3)CC2)NC2CCNCC12` (centres undefined), it took 8600 nM to reach half-maximal inhibition (IC50).

Turning to `O=C1N=C(CCCN2CC=C(c3ccccc3)CC2)NC2CCCCCC12` (centres undefined), the concentration for half-maximal inhibition (IC50) stood at 495 nM.

As to `O=C1N=C(CCCN2CC=C(c3ccccc3)CC2)NC2CCOCC12` (centres undefined), half-maximal inhibition (IC50) required 200 nM.

`CC1(C)CCC2NC(CCCN3CC=C(c4ccccc4)CC3)=NC(=O)C2C1` (centres undefined) registered an IC50 above 10000 nM.

In turn, `O=C1NC(CCCN2CC=C(c3ccccc3)CC2)=NC2CCSCC12` (centres undefined) yielded an IC50 of 8.9 nM.

Consider `O=C1NC(CCCN2CC=C(c3ccccc3)CC2)=NC2CCCC12` (centres undefined), for which the midpoint of inhibition, the IC50, lay at 249 nM.

`O=C1N=C(CCCN2CC=C(c3ccccc3)CC2)NC2CCCCC12` (centres undefined) had an IC50 of 20 nM.

Turning to `CC1=NC(=O)C2CSCCC2N1` (centres undefined), the IC50 was determined as 467 nM.

In turn, `CC1CCC2NC(CCCN3CC=C(c4ccccc4)CC3)=NC(=O)C2C1` (centres undefined) displayed an IC50 of 274 nM.

Consider `O=c1[nH]nc(CCCCN2CCOCC2)c2ccccc12`, for which the concentration for half-maximal inhibition (IC50) is 950 nM.

For the compound `CN1CCC2NC(CCCN3CC=C(c4ccccc4)CC3)=NC(=O)C2C1` (centres undefined), it took 6100 nM to reach half-maximal inhibition (IC50).
